# Laboratory results from article PMC6624251, “Isoform-specific Inhibition of N-methyl-D-aspartate Receptors by Bile Salts” (Scientific Reports, 2019).
# Like-named read-outs stand apart in the source and are kept apart here.
# Key:
# kainate receptor GluK2 = kainate receptor GluK2 (Rattus norvegicus, UniProt P42260); test: Two-electrode voltage clamp of kainate receptor in Xenopus laevis oocytes; type: cell-based; conditions: 100 µM CDC; after block of desensitization with ConA; n = 3
# Source text: (§1) The resulting EC50 or IC50 values were averaged.
# [1] = molecular target: AMPA receptor GluA1/GluA2 (Rattus norvegicus, UniProt P19490+P19491); test: Two-electrode voltage clamp of AMPA receptor in Xenopus laevis oocytes; type: cell-based; conditions: 100 µM CDC; n = 6
# AMPA receptor GluA1/GluA2, sequence (P19490 19-907): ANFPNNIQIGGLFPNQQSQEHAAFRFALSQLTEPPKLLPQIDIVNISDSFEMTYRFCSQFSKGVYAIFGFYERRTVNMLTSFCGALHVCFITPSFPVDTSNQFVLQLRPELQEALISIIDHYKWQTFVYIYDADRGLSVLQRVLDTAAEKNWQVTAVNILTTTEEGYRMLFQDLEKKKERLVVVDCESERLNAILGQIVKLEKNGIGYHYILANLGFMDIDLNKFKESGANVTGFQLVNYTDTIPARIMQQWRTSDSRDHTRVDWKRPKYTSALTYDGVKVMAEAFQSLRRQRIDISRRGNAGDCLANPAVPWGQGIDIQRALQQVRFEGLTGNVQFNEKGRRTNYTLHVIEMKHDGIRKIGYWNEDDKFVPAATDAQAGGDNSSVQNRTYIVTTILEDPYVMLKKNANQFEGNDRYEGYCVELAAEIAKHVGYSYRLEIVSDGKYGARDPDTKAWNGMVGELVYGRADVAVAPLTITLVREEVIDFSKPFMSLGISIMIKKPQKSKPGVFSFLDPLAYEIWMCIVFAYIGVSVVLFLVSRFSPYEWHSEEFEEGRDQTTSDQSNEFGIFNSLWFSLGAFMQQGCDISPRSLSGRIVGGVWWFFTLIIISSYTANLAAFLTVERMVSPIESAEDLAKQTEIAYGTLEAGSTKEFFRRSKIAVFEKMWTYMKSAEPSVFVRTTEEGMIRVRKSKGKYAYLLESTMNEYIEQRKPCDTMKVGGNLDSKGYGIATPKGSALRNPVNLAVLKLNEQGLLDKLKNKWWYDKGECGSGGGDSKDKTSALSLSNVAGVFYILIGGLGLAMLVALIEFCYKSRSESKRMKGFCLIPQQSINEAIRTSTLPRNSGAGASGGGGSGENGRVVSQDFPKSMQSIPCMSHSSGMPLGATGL
# AMPA receptor GluA1/GluA2, sequence (P19491 22-883): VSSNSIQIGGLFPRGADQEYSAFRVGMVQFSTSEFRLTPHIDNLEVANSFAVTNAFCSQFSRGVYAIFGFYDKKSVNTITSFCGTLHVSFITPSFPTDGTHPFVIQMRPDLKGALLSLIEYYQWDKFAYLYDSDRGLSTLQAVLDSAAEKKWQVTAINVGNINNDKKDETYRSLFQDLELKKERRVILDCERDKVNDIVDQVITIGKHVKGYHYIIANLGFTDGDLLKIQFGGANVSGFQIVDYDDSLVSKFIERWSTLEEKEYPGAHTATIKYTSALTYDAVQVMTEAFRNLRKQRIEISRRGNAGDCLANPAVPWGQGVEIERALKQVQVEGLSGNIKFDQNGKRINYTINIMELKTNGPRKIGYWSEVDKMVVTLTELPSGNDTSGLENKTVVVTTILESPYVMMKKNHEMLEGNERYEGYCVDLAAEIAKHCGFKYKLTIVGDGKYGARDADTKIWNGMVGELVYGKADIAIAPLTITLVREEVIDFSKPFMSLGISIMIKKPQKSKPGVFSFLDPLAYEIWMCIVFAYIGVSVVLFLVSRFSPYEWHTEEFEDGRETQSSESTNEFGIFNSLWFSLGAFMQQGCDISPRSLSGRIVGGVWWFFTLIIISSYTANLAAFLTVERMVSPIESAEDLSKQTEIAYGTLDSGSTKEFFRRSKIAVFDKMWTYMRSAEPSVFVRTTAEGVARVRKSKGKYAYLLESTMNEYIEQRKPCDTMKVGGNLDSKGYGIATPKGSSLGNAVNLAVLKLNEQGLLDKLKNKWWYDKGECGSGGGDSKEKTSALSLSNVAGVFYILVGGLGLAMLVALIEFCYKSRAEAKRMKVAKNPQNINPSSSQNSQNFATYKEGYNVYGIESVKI
# Source text: as §1
# GluN3B Ser701 to Ala = GluN3B Ser701 to Ala (Mus musculus, UniProt Q91ZU9, S701A); test: Two-electrode voltage clamp of GluN3B point mutant Ser701 to Ala in oocytes; type: cell-based; conditions: for Increase in block for the mutant compared with wild type: 100 µM bile salt, n = 11–13
# GluN3B Ser701 to Ala, sequence (Q91ZU9 25-1003 S701A, other chains not shown): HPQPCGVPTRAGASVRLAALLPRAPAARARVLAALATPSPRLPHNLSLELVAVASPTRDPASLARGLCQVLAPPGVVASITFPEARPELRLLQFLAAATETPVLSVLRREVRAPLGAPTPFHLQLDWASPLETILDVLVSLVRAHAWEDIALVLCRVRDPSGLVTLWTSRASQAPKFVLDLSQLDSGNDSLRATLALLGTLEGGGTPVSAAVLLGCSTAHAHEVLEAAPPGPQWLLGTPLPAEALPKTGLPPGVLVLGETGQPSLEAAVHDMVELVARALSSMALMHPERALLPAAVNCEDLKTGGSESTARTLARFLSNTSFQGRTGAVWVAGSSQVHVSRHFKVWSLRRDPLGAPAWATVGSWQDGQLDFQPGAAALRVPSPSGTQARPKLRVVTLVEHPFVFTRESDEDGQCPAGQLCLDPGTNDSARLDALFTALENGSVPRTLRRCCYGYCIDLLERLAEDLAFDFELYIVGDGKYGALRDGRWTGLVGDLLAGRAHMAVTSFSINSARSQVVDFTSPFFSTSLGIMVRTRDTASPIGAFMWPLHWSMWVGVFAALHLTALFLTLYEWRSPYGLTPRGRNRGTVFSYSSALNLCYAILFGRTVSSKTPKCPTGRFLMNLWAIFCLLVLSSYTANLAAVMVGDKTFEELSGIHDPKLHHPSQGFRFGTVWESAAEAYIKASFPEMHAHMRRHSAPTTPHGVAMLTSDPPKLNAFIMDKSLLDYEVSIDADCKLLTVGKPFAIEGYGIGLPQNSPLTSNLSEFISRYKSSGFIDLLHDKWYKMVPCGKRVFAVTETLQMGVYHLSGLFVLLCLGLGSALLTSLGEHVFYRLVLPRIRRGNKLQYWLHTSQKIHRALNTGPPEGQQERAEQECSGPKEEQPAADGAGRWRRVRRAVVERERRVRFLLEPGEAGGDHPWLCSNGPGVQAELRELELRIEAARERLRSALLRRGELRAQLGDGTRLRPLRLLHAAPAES
# Source text: as §1
# GluN1/GluN2D receptors = GluN1/GluN2D receptors (Rattus norvegicus, UniProt P35439+Q62645); test: Two-electrode voltage clamp of recombinant NMDARs in Xenopus laevis oocytes (GluN2D); conditions: for IC50: read-out: IC50 Tauro-CDC
# GluN1/GluN2D receptors, sequence (Q62645 28-1323, other chains not shown): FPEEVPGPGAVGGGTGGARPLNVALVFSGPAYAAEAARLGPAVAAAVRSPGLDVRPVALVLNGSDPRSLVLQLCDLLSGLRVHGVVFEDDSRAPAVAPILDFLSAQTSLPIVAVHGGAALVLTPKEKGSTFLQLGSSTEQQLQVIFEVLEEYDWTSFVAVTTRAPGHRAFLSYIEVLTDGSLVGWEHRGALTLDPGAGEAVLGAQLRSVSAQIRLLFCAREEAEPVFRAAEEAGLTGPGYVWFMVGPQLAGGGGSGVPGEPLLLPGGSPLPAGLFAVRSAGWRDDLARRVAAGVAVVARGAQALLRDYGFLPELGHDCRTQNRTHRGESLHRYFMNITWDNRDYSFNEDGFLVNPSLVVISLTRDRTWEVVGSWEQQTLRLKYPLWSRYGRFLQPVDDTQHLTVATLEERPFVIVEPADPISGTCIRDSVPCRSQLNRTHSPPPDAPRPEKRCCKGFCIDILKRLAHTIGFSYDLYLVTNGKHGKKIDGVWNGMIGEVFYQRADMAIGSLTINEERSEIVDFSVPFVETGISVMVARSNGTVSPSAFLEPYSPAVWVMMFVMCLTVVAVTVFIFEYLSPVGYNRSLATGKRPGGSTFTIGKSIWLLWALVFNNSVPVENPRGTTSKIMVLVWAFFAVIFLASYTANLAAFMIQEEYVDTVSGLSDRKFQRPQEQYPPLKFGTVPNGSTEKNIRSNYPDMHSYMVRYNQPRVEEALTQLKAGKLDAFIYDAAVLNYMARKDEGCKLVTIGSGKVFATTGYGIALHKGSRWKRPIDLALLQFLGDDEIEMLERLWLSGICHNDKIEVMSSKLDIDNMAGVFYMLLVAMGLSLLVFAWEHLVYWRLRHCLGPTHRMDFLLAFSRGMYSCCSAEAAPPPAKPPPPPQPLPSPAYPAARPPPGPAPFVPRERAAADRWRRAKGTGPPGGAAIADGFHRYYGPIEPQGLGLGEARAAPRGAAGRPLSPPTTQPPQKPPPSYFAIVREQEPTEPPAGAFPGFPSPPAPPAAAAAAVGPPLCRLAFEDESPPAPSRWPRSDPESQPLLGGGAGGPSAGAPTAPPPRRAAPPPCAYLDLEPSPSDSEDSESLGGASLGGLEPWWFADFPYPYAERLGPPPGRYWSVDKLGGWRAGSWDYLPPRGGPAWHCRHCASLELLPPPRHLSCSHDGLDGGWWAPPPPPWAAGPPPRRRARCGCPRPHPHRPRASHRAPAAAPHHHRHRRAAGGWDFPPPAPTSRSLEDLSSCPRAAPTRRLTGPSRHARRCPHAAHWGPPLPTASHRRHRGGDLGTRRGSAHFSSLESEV
# Source text: (§2) The cDNAs coding for NMDA and kainate receptors, subcloned into pSGEM for expression in Xenopus laevis oocytes, were kindly provided by Michael Hollmann (Ruhr University Bochum). AMPA receptor cDNAs were inserted in pGEM-HE for cRNA synthesis. The following cDNAs were used: GluN1-1a (U08261), GluN2A (NM_012573), GluN2B (NM_012574), GluN2D (U08260), GluN3B (NM_130455), GluK2 (NM_019309), GluA1 (NM_031608) and GluA2 (M38061). These cDNAs are from rat except for GluN3B, which is from mouse. Point mutants were generated by polymerase chain reaction (PCR)-directed mutagenesis with specific mismatch primers (biomers.net). cRNA was synthesized from 1 µg of linearized plasmid DNA using an in vitro transcription kit (mMESSAGE mMACHINE® T7 Transcription Kit, Thermo Fisher Scientific).
# (§3) Oocytes were obtained from parts of the ovaries surgically removed from Xenopus laevis in accordance with German law and approved by the local authorities of the Heinrich Heine University of Düsseldorf. Lumps of around 20 oocytes were incubated with 10 mg/ml collagenase type 2 (Worthington Biochemical Corporation) for 1–1.5 h in Ca^2+-free Barth’s solution (in mM: 88 NaCl, 1 KCl, 2.4 NaHCO3, 0.82 MgSO4, 20 HEPES, pH adjusted to 7.5 with NaOH) with slow agitation to remove the follicular cell layer and then washed extensively with Barth’s solution containing Ca^2+ (in mM: 88 NaCl, 1 KCl, 2.4 NaHCO3, 0.82 MgSO4, 0.41 CaCl2, 0.33 Ca(NO3)2, 20 HEPES, pH adjusted to 7.5 with NaOH) to inactivate the collagenase. Oocytes were maintained in Barth’s solution charged with antibiotic and antimycotic solution (containing penicillin, streptomycin and amphotericin B, Sigma-Aldrich) at 18 °C. Alternatively, Xenopus laevis oocytes were purchased from EcoCyte Bioscience (Castrop-Rauxel, Germany). Within 24 h after surgery, oocytes of stages V-VI were injected with 3.8 ng GluN1 and 5 ng GluN2A or GluN2B cRNAs, 7.6 ng GluN1 and 10 ng GluN2D cRNA or 7.6 ng GluN1 and 6.4 ng GluN3B-cRNA per oocyte (molecular GluN1 to GluN2 ratio: 1:1; GluN1 to GluN3 ratio: 1:1) using a Micro4 nanoliter injector (World Precision Instruments, Sarasota, FL, USA).
# (§4) Two-electrode voltage clamp recordings of oocyte current responses were performed 3–5 days after cRNA injection at −70 mV holding potential with a Turbo Tec-03X amplifier (npi electronic, Germany) controlled by Pulse software (HEKA, Germany). Electrodes were filled with 3 M KCl and had resistances of 0.5–1.5 MΩ. […] Agonists and bile salts were applied for 20–40 s by superfusion. Agonist and bile salt blocker potencies were determined by recording current responses induced by the application of increasing agonist concentrations or increasing bile salt concentration to the same oocyte. Agonist-induced currents were normalized to the maximum response under saturating agonist concentration. In case of inhibition by bile salts the relative reduction in agonist-induced current was determined. Data from each oocyte was fitted separately to the Hill equation using Origin 9 software. The resulting EC50 or IC50 values were averaged. Current-voltage relationships were determined by ramping the holding potential from −140 mV to +50 mV corrected for background conductivities. Data are reported as mean ± standard error of the mean (SEM). Statistical significance was determined using the unpaired, two-tailed Student’s t-test.
# GluN3B Tyr505 to Ala = GluN3B Tyr505 to Ala (Mus musculus, UniProt Q91ZU9, Y505A); conditions: n = 9
# GluN3B Tyr505 to Ala, sequence (Q91ZU9 25-1003 Y505A, other chains not shown): as the sequence (Q91ZU9 25-1003 S701A, other chains not shown) above, with Y481A, A677S counted along it
# Procedure: AMPA receptor cDNAs were inserted in pGEM-HE for cRNA synthesis. The following cDNAs were used: GluN1-1a (U08261), GluN2A (NM_012573), GluN2B (NM_012574), GluN2D (U08260), GluN3B (NM_130455), GluK2 (NM_019309), GluA1 (NM_031608) and GluA2 (M38061). These cDNAs are from rat except for GluN3B, which is from mouse. Point mutants were generated by polymerase chain reaction (PCR)-directed mutagenesis with specific mismatch primers (biomers.net). cRNA was synthesized from 1 µg of linearized plasmid DNA using an in vitro transcription kit (mMESSAGE mMACHINE® T7 Transcription Kit, Thermo Fisher Scientific). […]
# Two-electrode voltage clamp recordings of oocyte current responses were performed 3–5 days after cRNA injection at −70 mV holding potential with a Turbo Tec-03X amplifier (npi electronic, Germany) controlled by Pulse software (HEKA, Germany). […] Agonist and bile salt blocker potencies were determined by recording current responses induced by the application of increasing agonist concentrations or increasing bile salt concentration to the same oocyte. […] In case of inhibition by bile salts the relative reduction in agonist-induced current was determined. […] Current-voltage relationships were determined by ramping the holding potential from −140 mV to +50 mV corrected for background conductivities. […] Statistical significance was determined using the unpaired, two-tailed Student’s t-test.
# GluN1/GluN3B receptors = GluN1/GluN3B receptors (Mus musculus, UniProt Q91ZU9); test: Two-electrode voltage clamp of recombinant NMDARs in Xenopus laevis oocytes (GluN3B); conditions: for maximum block by tauro-CDC / IC50: n = 6; for IC50: read-out: mean IC50 for tauro-CDC
# GluN1/GluN3B receptors, sequence (Q91ZU9 25-1003, other chains not shown): as the sequence (Q91ZU9 25-1003 S701A, other chains not shown) above, with A677S counted along it
# Source text: as §2, §3, §4
# NMDAR = system: NMDAR; set-up: method as in PMID 1372086; conditions: read-out: reported EC50; cited from earlier work
# uninjected oocytes = test: Agonist application to uninjected oocytes; type: cell-based, Xenopus laevis; conditions: n = 3
# Source text: as §1
# kainate receptor GluK2, sequence (P42260 32-908): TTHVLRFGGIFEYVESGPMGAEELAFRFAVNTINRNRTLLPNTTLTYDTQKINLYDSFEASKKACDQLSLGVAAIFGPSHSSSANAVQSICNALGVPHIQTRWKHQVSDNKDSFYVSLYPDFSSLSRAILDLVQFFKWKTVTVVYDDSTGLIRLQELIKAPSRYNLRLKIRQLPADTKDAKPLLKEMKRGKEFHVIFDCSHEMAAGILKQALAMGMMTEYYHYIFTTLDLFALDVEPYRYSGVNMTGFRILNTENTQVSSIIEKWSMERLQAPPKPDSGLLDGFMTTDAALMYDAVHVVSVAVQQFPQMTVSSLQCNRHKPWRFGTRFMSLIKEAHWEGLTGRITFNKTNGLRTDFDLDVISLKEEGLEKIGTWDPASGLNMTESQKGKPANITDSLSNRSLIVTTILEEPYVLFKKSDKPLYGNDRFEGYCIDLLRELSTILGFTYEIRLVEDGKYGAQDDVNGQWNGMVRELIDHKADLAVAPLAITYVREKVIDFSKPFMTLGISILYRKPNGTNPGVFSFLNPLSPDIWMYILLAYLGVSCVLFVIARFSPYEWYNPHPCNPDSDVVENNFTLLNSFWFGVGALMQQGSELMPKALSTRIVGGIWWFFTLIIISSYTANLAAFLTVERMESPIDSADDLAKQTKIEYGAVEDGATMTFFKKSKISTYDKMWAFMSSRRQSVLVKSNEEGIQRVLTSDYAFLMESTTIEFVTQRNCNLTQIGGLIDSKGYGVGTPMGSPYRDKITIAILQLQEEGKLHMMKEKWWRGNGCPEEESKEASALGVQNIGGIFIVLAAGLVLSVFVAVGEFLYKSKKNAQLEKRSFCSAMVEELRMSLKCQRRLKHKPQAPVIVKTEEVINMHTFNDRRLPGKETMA
smiles,measurement,setting,value
"C[C@H](CCC(=O)O)[C@H]1CC[C@H]2[C@@H]3[C@H](O)C[C@@H]4C[C@H](O)CC[C@]4(C)[C@H]3CC[C@]12C [CDC, chenodeoxycholate]",Inhibition of glutamate-induced steady-state GluK2 current,kainate receptor GluK2,no inhibition
same,Reduction of GluA1/GluA2 currents,[1],7 ± 1%
same,Increase in block for the mutant compared with wild type,GluN3B Ser701 to Ala,15%
"N[C@@H](CCC(=O)O)C(=O)O [Glu, glutamate]",max. Glu-induced current [normalized],GluN1/GluN2D receptors; 10 µM Gly,1.00 ± 0.17 (7)
same,max. Glu-induced current [normalized],GluN1/GluN2D receptors; 10 µM Gly + 180 µM Tauro-CDC,0.25 ± 0.06 (7)
"NCC(=O)O [Gly, glycine]",glycine-induced currents,"GluN3B Ser701 to Ala; Ser701 to Ala mutant, n = 29",106 ± 12 nA
same,Activation of mutant receptor by agonist,GluN3B Tyr505 to Ala,could not be activated
same,glycine-induced currents,"GluN1/GluN3B receptors; wild type, n = 30",835 ± 85 nA
"N[C@@H](CCS(=O)(=O)O)C(=O)O [L-HCA, L-homocysteic acid]",EC50,NMDAR,13 µM
same,Activation of GluN3B by agonist,"GluN1/GluN3B receptors; concentrations of up to 1 mM, n = 4",could not be activated
"O=C(O)c1cccnc1C(=O)O [QN, quinolinic acid]",Effect on uninjected oocytes,uninjected oocytes,no effect
same,EC50,NMDAR,7200 µM
C[C@H](CCC(=O)NCCS(=O)(=O)O)[C@H]1CC[C@H]2[C@@H]3[C@H](O)C[C@@H]4C[C@H](O)CC[C@]4(C)[C@H]3CC[C@]12C [Tauro-CDC],Increase in block for the mutant compared with wild type,GluN3B Ser701 to Ala,15%
same,max. block by Tauro-CDC,"GluN1/GluN2D receptors; 10 µM Gly, 0.51 µM Glu",100 ± 4 (11) %
same,max. block by Tauro-CDC,"GluN1/GluN2D receptors; 10 µM Gly, 150 µM Glu",87 ± 3 (13) %
same,Block of L-HCA-induced GluN2D currents,"GluN1/GluN2D receptors; 100 µM tauro-CDC, L-HCA 13 µM, 10 µM glycine co-agonist, n = 12",30 ± 2%
same,Inhibition of QN-induced GluN2D currents,"GluN1/GluN2D receptors; 100 µM tauro-CDC, QN 1 mM, 10 µM glycine co-agonist, n = 7",29 ± 2%
same,Reduction of QN-induced GluN2D currents,"GluN1/GluN2D receptors; 100 µM tauro-CDC, QN 7.2 mM, 10 µM glycine co-agonist, n = 7",26 ± 2%
same,Effect in the absence of NMDAR agonists (partial agonist action),"GluN1/GluN2D receptors; 100 µM tauro-CDC, n = 4",no effects
same,Effect on I/V relationship and reversal potential of agonist-induced currents,"GluN1/GluN2D receptors; 100 µM tauro-CDC, n = 10–11",did neither change the shape of I/V relationships nor did it shift the reversal potentials
same,max. block by Tauro-CDC,"GluN1/GluN2D receptors; […] Gly, 150 µM Glu",98 ± 3 (8) %
same,IC50,"GluN1/GluN2D receptors; 10 µM Gly, 0.51 µM Glu",137 ± 8 µM
same,IC50,"GluN1/GluN2D receptors; 10 µM Gly, 150 µM Glu (saturating agonist concentration)",179 ± 11 µM
same,IC50,"GluN1/GluN2D receptors; […] Gly, 150 µM Glu",153 ± 8 µM
same,maximum block by tauro-CDC,GluN1/GluN3B receptors; 5 μM glycine,92 ± 3%
same,maximum block by tauro-CDC,GluN1/GluN3B receptors; 10 μM glycine,95 ± 3%
same,Effect in the absence of NMDAR agonists (partial agonist action),"GluN1/GluN3B receptors; 100 µM tauro-CDC, n = 4",no effects
same,Effect on I/V relationship and reversal potential of agonist-induced currents,"GluN1/GluN3B receptors; 100 µM tauro-CDC, n = 10–11",did neither change the shape of I/V relationships nor did it shift the reversal potentials
same,IC50,GluN1/GluN3B receptors; in the presence of 5 μM glycine,44 ± 7 µM
same,IC50,GluN1/GluN3B receptors; in the presence of 10 μM glycine,83 ± 8 µM
same,Reduction of QN-induced GluN3B currents,"GluN1/GluN3B receptors; tauro-CDC 100 µM, QN 7.2 mM, n = 5",about 68 ± 4%
